This note sets out measurements from patent US20250019387A1 (Frontier Medicines Corporation, priority 0001, published 2025).

pIC50: −log10 of the molar value.

Chain of KRAS G12C and cRAF (Ras-binding domain) interaction (P01116 other isoform, or with tags, fused parts or gaps G12C/C51S/C80L/C118S): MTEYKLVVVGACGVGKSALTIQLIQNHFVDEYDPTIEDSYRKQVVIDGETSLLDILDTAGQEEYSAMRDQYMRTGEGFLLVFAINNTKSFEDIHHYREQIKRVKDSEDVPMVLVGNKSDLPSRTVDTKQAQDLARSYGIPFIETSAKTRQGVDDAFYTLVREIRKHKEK
Chain of KRAS G12C and PI3Ka (Ras-binding domain) interaction (P01116 other isoform, or with tags, fused parts or gaps G12C/C51S/C80L/C118S): as above

For one assay, the target named is KRAS G12C and PI3Ka (Ras-binding domain) interaction (Homo sapiens (Human), UniProt P01116, C118S/C51S/C80L/G12C). Put plainly: Inhibition of KRAS G12C and PI3Ka binding (AlphaScreen). The note with it: GMPPNP-loaded KRAS G12C, 2 hours incubation with compound; read-out: PI3Ka RBD IC50. On the procedure:
Compounds were diluted in 100% DMSO and each compound concentration was spotted at 200 nl/well onto low volume, white 384 well plates. […] The KRAS GT2C was diluted in 25 mM Hepes, pH 7.4, 150 mM NaCl, 5 mMv MgCl2, 0.0100 TritonX-100 and 10 μM GMPPNP and added at 10 ul/well to compound-spotted plates resulting in a […] concentration of 2%. Plates were incubated for 2 hours. A mixture of RBD and the AlphaScreen streptavidin donor and nickel chelate acceptor beads diluted in 25 mMv Hepes, pH 7.4, 150 mMv NaCl, 5 mM MgCl2, 0.0100 TritonX-100 and 2% DMSO was then added at 10 ul/well and incubated for 60-90 minutes before the samples were read for emission at 570 nm after excitation of the donor beads at 680 nm. All incubations were performed at room temperature. […] Final assay conditions were 1.5 nM KRAS GT2C, 100 nM RBD, 1.25 ug/ml of AlphaScreen donor beads and 10 μg/ml AlphaLISA acceptor beads. IC50S were determined using nonlinear regression fit of [inhibitor]vs. response (4 parameters). […]
(In general: Bead proximity is the source of the signal in Alpha formats.)
Take `CN(c1nc(OC[C@@]23CCCN2C[C@H](F)C3)nc2c1CCN(c1cccc3cccc(Cl)c13)C2)[C@@H]1CCN(C(=O)/C=C/c2nc([C@H]3C[C@@H]3F)no2)C1` [Example 130, (E)-1-((R)-3-((7-(8-chloronaphthalen-1-yl)-2-(((2R,7aS)-2-fluorohexahydro-1H-pyrrolizin-7a-yl)methoxy)-5,6,7,8-tetrahydropyrido[3,4-d]pyrimidin-4-yl)(methyl)amino)pyrrolidin-1-yl)-3-(3-((1R,2S)-2-fluorocyclopropyl)-1,2,4-oxadiazol-5-yl)prop-2-en-1-one]: the negative-log IC50 (pIC50) (in general, the negative decadic logarithm of the IC50, by convention in mol/L) was 7.00 to 8.00. Still for that read-out and setting: with `CN(CC1CN(C(=O)/C=C/c2nc([C@H]3C[C@@H]3F)no2)C1)c1nc(OC[C@@]23CCCN2C[C@H](F)C3)nc2c(F)c(-c3cccc4cccc(Cl)c34)ncc12` [Example 139, (E)-1-(3-(((7-(8-chloronaphthalen-1-yl)-8-fluoro-2-(((2R,7aS)-2-fluorotetrahydro-1H-pyrrolizin-7a(5H)-yl)methoxy)pyrido[4,3-d]pyrimidin-4-yl)(methyl)amino)methyl)azetidin-1-yl)-3-(3-((1R,2S)-2-fluorocyclopropyl)-1,2,4-oxadiazol-5-yl)prop-2-en-1-one] the figure was 7.00 to 8.00.

A further assay addresses KRAS G12C and cRAF (Ras-binding domain) interaction (Homo sapiens (Human), UniProt P01116, C118S/C51S/C80L/G12C). Kind of assay: Inhibition of KRAS G12C and cRAF binding (AlphaScreen). The note with it: GMPPNP-loaded KRAS G12C, 19-20 hours incubation with compound; read-out: IC50 (Inhibition of KRAS G12C and cRAF Binding). An outline of the steps: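 IC50 values come from 4-parameter nonlinear regression of AlphaScreen signal (680 nm excitation, 570 nm emission). Compound plates sat 19-20 h at room temperature before RBD and donor/acceptor beads were added in Hepes pH 7.4 buffer with 150 mM NaCl, 5 mM MgCl2, 2% DMSO for 60-90 min; biotin-AviTag-GST replaced RBD to flag assay-technology interferers.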
Consider `CN(c1nc(OC[C@@]23CCCN2C[C@H](F)C3)nc2c1CCN(c1cccc3cccc(Cl)c13)C2)[C@@H]1CCN(C(=O)/C=C/c2nc([C@H]3C[C@@H]3F)no2)C1` [Example 130, (E)-1-((R)-3-((7-(8-chloronaphthalen-1-yl)-2-(((2R,7aS)-2-fluorohexahydro-1H-pyrrolizin-7a-yl)methoxy)-5,6,7,8-tetrahydropyrido[3,4-d]pyrimidin-4-yl)(methyl)amino)pyrrolidin-1-yl)-3-(3-((1R,2S)-2-fluorocyclopropyl)-1,2,4-oxadiazol-5-yl)prop-2-en-1-one], for which the pIC50 is 7.00 to 8.00.

For the compound `CN(CC1CN(C(=O)/C=C/c2nc([C@H]3C[C@@H]3F)no2)C1)c1nc(OC[C@@]23CCCN2C[C@H](F)C3)nc2c(F)c(-c3cccc4cccc(Cl)c34)ncc12` [Example 139, (E)-1-(3-(((7-(8-chloronaphthalen-1-yl)-8-fluoro-2-(((2R,7aS)-2-fluorotetrahydro-1H-pyrrolizin-7a(5H)-yl)methoxy)pyrido[4,3-d]pyrimidin-4-yl)(methyl)amino)methyl)azetidin-1-yl)-3-(3-((1R,2S)-2-fluorocyclopropyl)-1,2,4-oxadiazol-5-yl)prop-2-en-1-one], the pIC50 is 7.00 to 8.00. Same read-out and setting: the figure for `Cc1ncc(F)c(/C=C/C(=O)N2CC[C@@H](N(C)c3nc(OC[C@@]45CCCN4C[C@H](F)C5)nc4c(F)c(-c5cccc6ccc(F)c(F)c56)ncc34)C2)n1` [Example 295, (E)-1-((R)-3-((7-(7,8-difluoronaphthalen-1-yl)-8-fluoro-2-(((2R,7aS)-2-fluorotetrahydro-1H-pyrrolizin-7a(5H)-yl)methoxy)pyrido[4,3-d]pyrimidin-4-yl)(methyl)amino)pyrrolidin-1-yl)-3-(5-fluoro-2-methylpyrimidin-4-yl)prop-2-en-1-one] is 7.00 to 8.00; for `Cc1cc(/C=C/C(=O)N2CC[C@@H](Nc3nc(OC[C@@]45CCCN4C[C@H](F)C5)nc4c(F)c(-c5cccc6ccc(F)c(F)c56)ncc34)C2)nc(C)n1` [Example 296, (E)-1-((R)-3-((7-(7,8-difluoronaphthalen-1-yl)-8-fluoro-2-(((2R,7aS)-2-fluorohexahydro-1H-pyrrolizin-7a-yl)methoxy)pyrido[4,3-d]pyrimidin-4-yl)amino)pyrrolidin-1-yl)-3-(2,6-dimethylpyrimidin-4-yl)prop-2-en-1-one] it is 7.00 to 8.00. As for `C=CC(=O)N1CC[C@@H](N(C)c2nc(OC[C@@]34CCCN3C[C@H](F)C4)nc3c(F)c(-c4cccc5cccc(C#N)c45)ncc23)C1` [Example 297, 8-(4-(((R)-1-acryloylpyrrolidin-3-yl)(methyl)amino)-8-fluoro-2-(((2R,7aS)-2-fluorotetrahydro-1H-pyrrolizin-7a(5H)-yl)methoxy)pyrido[4,3-d]pyrimidin-7-yl)-1-naphthonitrile], the pIC50 was 6.30 to 7.00.

Turning to `C#Cc1c(F)ccc2cccc(-c3ncc4c(N(C)[C@@H]5CCN(C(=O)C=C6CN(C)C6)C5)nc(OC[C@@]56CCCN5C[C@H](F)C6)nc4c3F)c12` [Example 298, 1-((R)-3-((7-(8-ethynyl-7-fluoronaphthalen-1-yl)-8-fluoro-2-(((2R,7aS)-2-fluorotetrahydro-1H-pyrrolizin-7a(5H)-yl)methoxy)pyrido[4,3-d]pyrimidin-4-yl)(methyl)amino)pyrrolidin-1-yl)-2-(1-methylazetidin-3-ylidene)ethan-1-one], the pIC50 was greater than 8.00. Same read-out and setting: with `CN1CC(=CC(=O)N2CC[C@@H](N(C)c3nc(OC[C@@]45CCCN4C[C@H](F)C5)nc4c(F)c(-c5cccc6ccc(F)c(F)c56)ncc34)C2)C1` [Example 299, 1-((R)-3-((7-(7,8-difluoronaphthalen-1-yl)-8-fluoro-2-(((2R,7aS)-2-fluorotetrahydro-1H-pyrrolizin-7a(5H)-yl)methoxy)pyrido[4,3-d]pyrimidin-4-yl)(methyl)amino)pyrrolidin-1-yl)-2-(1-methylazetidin-3-ylidene)ethan-1-one] the figure was greater than 8.00; with `CN1CC(=CC(=O)N2CC[C@@H](N(C)c3nc(OC[C@@]45CCCN4C[C@H](F)C5)nc4c(F)c(-c5cccc6ccc(F)c(Cl)c56)ncc34)C2)C1` [Example 300, 1-((R)-3-((7-(8-chloro-7-fluoronaphthalen-1-yl)-8-fluoro-2-(((2R,7aS)-2-fluorotetrahydro-1H-pyrrolizin-7a(5H)-yl)methoxy)pyrido[4,3-d]pyrimidin-4-yl)(methyl)amino)pyrrolidin-1-yl)-2-(1-methylazetidin-3-ylidene)ethan-1-one], 7.00 to 8.00. Consider `C#Cc1c(F)ccc2cccc(-c3ncc4c(N(C)[C@@H]5CCN(C(=O)/C=C/c6nc(C)ncc6F)C5)nc(OC[C@@]56CCCN5C[C@H](F)C6)nc4c3F)c12` [Example 301, (E)-1-((R)-3-((7-(8-ethynyl-7-fluoronaphthalen-1-yl)-8-fluoro-2-(((2R,7aS)-2-fluorohexahydro-1H-pyrrolizin-7a-yl)methoxy)pyrido[4,3-d]pyrimidin-4-yl)(methyl)amino)pyrrolidin-1-yl)-3-(5-fluoro-2-methylpyrimidin-4-yl)prop-2-en-1-one], for which the negative logarithm of the IC50 (pIC50) was 7.00 to 8.00. As for `C#Cc1c(F)ccc2cccc(-c3ncc4c(N(C)[C@@H]5CCN(C(=O)/C=C/c6nc(C)nc(C)c6F)C5)nc(OC[C@@]56CCCN5C[C@H](F)C6)nc4c3F)c12` [Example 302, (E)-1-((R)-3-((7-(8-ethynyl-7-fluoronaphthalen-1-yl)-8-fluoro-2-(((2R,7aS)-2-fluorotetrahydro-1H-pyrrolizin-7a(5H)-yl)methoxy)pyrido[4,3-d]pyrimidin-4-yl)(methyl)amino)pyrrolidin-1-yl)-3-(5-fluoro-2,6-dimethylpyrimidin-4-yl)prop-2-en-1-one], the pIC50 is 7.00 to 8.00.

In the case of `C#Cc1c(F)ccc2cccc(-c3ncc4c(N(C)[C@@H]5CCN(C(=O)C=C)C5)nc(OCC56CCCN5CCC6)nc4c3F)c12` [Example 303, (R)-1-(3-((7-(8-ethynyl-7-fluoronaphthalen-1-yl)-8-fluoro-2-((tetrahydro-1H-pyrrolizin-7a(5H)-yl)methoxy)pyrido[4,3-d]pyrimidin-4-yl)(methyl)amino)pyrrolidin-1-yl)prop-2-en-1-one], the pIC50 was greater than 8.00.

With `C=CC(=O)N1CC[C@@H](N(C)c2nc(OC[C@@]34CCCN3C[C@H](F)C4)nc3c(F)c(-c4cccc5cccc(C6CC6)c45)ncc23)C1` [Example 304, 1-((R)-3-((7-(8-cyclopropylnaphthalen-1-yl)-8-fluoro-2-(((2R,7aS)-2-fluorotetrahydro-1H-pyrrolizin-7a(5H)-yl)methoxy)pyrido[4,3-d]pyrimidin-4-yl)(methyl)amino)pyrrolidin-1-yl)prop-2-en-1-one], the negative logarithm of the IC50 (pIC50) is less than 6.30. With `C#Cc1c(F)ccc2cccc(-c3ncc4c(N(C)[C@@H]5CCN(C(=O)C=C)C5)nc(OC[C@]56CCCN5C[C@H](F)C6)nc4c3F)c12` [Example 305, 1-((R)-3-((7-(8-ethynyl-7-fluoronaphthalen-1-yl)-8-fluoro-2-(((2R,7aR)-2-fluorotetrahydro-1H-pyrrolizin-7a(5H)-yl)methoxy)pyrido[4,3-d]pyrimidin-4-yl)(methyl)amino)pyrrolidin-1-yl)prop-2-en-1-one], the pIC50 was 7.00 to 8.00.

Take `C=CC(=O)N1CC[C@@H](N(C)c2nc(OC[C@@]34CCCN3C[C@H](F)C4)nc3c(F)c(-c4cccc5cccc(C#CC)c45)ncc23)C1` [Example 306, 1-((R)-3-((8-fluoro-2-(((2R,7aS)-2-fluorotetrahydro-1H-pyrrolizin-7a(5H)-yl)methoxy)-7-(8-(prop-1-yn-1-yl)naphthalen-1-yl)pyrido[4,3-d]pyrimidin-4-yl)(methyl)amino)pyrrolidin-1-yl)prop-2-en-1-one]: the pIC50 was less than 6.30. On the same count and under the same terms, with `C=CC(=O)N1CC[C@@H](N(C)c2nc(OC[C@@]34CCCN3C[C@H](F)C4)nc3c(F)c(-c4cccc5cccc(C(F)F)c45)ncc23)C1` [Example 307, 1-((R)-3-((7-(8-(difluoromethyl)naphthalen-1-yl)-8-fluoro-2-(((2R,7aS)-2-fluorohexahydro-1H-pyrrolizin-7a-yl)methoxy)pyrido[4,3-d]pyrimidin-4-yl)(methyl)amino)pyrrolidin-1-yl)prop-2-en-1-one] the figure was less than 6.30.

The same assay, now with this note: additional exemplary compounds; KRAS G12C and cRAF binding; read-out: RAF1 RBD IC50.
With `C=CC(=O)N1C[C@H](F)[C@@H](N(C)c2nc(OC[C@@]34CCCN3C[C@H](F)C4)nc3c(F)c(-c4cccc5cccc(Cl)c45)ncc23)C1` [drawing 2208], the negative-log IC50 (pIC50) was 7.00 to 8.00.
